From ChEMBL document CHEMBL1136208, “Bone-targeted Src kinase inhibitors: novel pyrrolo- and pyrazolopyrimidine analogues” (Bioorg Med Chem Lett, 2003)

target: Proto-oncogene tyrosine-protein kinase Src (Homo sapiens, UniProt P12931); assay: In vitro inhibition of Src protein tyrosine kinase using the Scintillation proximity kinase assay.; parameters: species or system Oryctolagus cuniculus
Sequence (P12931 2-536 limits assumed): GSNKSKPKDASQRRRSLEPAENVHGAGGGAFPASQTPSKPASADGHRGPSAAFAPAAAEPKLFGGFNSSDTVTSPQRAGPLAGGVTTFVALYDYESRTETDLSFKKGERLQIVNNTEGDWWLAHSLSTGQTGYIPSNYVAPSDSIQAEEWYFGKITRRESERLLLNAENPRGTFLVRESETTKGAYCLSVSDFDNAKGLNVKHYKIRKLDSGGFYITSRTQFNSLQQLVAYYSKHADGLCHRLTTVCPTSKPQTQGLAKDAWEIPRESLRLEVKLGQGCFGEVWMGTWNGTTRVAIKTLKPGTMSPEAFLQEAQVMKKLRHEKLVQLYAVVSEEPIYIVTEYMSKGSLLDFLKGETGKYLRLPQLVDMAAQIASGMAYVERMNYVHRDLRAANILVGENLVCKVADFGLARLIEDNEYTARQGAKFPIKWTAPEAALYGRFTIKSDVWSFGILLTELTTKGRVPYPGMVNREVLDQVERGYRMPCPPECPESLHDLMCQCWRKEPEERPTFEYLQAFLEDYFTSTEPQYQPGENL

| IC50 | SMILES |
| --- | --- |
| 400 nM | Cc1ccc(-c2nn(-c3cccc(C(=O)NCCCP(=O)(O)CP(=O)(O)O)c3)c3ncnc(N)c23)cc1 |
| 320 nM | Cc1ccc(-c2nn(-c3cccc(C(=O)NCc4ccc(P(=O)(O)O)c(P(=O)(O)O)c4)c3)c3ncnc(N)c23)cc1 |
| 4000 nM | COc1cccc(-c2cn(-c3cccc(C(=O)O)c3)c3ncnc(N)c23)c1 |
| 40 nM | Nc1ncnc2c1c(-c1cccc(O)c1)cn2-c1ccc(CCO)cc1 |
| 360 nM | COc1cccc(-c2cn(-c3cccc(C(=O)NCCCP(=O)(O)CP(=O)(O)O)c3)c3ncnc(N)c23)c1 |
| 700 nM | COc1cccc(-c2cn(-c3ccc(CCOP(=O)(O)CP(=O)(O)O)cc3)c3ncnc(N)c23)c1 |
| 1600 nM | COc1cccc(-c2nn(-c3cccc(P(=O)(O)CC(=O)O)c3)c3ncnc(N)c23)c1 |
| 870 nM | COc1cccc(-c2cn(-c3ccc(C(=O)Nc4ccc(P(=O)(O)O)c(P(=O)(O)O)c4)cc3)c3ncnc(N)c23)c1 |
| 19000 nM | COc1cccc(-c2cn(-c3cccc(C(=O)Nc4ccc(C(P(=O)(O)O)P(=O)(O)O)cc4)c3)c3ncnc(N)c23)c1 |
| 40 nM | CN(CCO)CCc1ccc(-n2cc(-c3cccc(O)c3)c3c(N)ncnc32)cc1 |
| 680 nM | Cc1ccc(-c2nn(CCCCOP(=O)(O)CP(=O)(O)O)c3ncnc(N)c23)cc1 |
| 1500 nM | COc1cccc(-c2cn(-c3ccc(C(=O)O)cc3)c3ncnc(N)c23)c1 |
| 160 nM | COc1cccc(-c2cn(-c3ccc(CCN(C)CCO)cc3)c3ncnc(N)c23)c1 |
| 310 nM | COc1cccc(-c2cn(-c3ccc(CCN(C)CCOP(=O)(O)CP(=O)(O)O)cc3)c3ncnc(N)c23)c1 |
| 60 nM | Nc1ncnc2c1c(-c1cccc(O)c1)cn2-c1ccc(CCOP(=O)(O)CP(=O)(O)O)cc1 |
| 20 nM | Nc1ncnc2c1c(-c1cccc(O)c1)nn2-c1cccc(P(=O)(O)CC(=O)O)c1 |
| 4 nM | CN(CCOP(=O)(O)CP(=O)(O)O)CCc1ccc(-n2cc(-c3cccc(O)c3)c3c(N)ncnc32)cc1 |
| 250 nM | COc1cccc(-c2cn(-c3ccc(C(=O)NCCCP(=O)(O)CP(=O)(O)O)cc3)c3ncnc(N)c23)c1 |
| 40000 nM | COc1cccc(-c2cn(-c3ccc(C(=O)Nc4ccc(C(P(=O)(O)O)P(=O)(O)O)cc4)cc3)c3ncnc(N)c23)c1 |
| 2500 nM | COc1cccc(-c2cn(-c3cccc(C(=O)Nc4ccc(P(=O)(O)O)c(P(=O)(O)O)c4)c3)c3ncnc(N)c23)c1 |
